Measured values reported in the supplement of paper PMC10307832.

Compound: Cc1cnc(Nc2ccc(OCCN3CCCC3)cc2)nc1Nc1cccc(S(=O)(=O)NC(C)(C)C)c1 [Fedratinib] + CS(=O)(=O)CCNCc1ccc(-c2ccc3ncnc(Nc4ccc(OCc5cccc(F)c5)c(Cl)c4)c3c2)o1 [Lapatinib] (partner 2 µM)
Assay: relative viability (nuclei count vs DMSO), 5 days (fraction); higher = more cells survive
Conditions: first compound 0.3162 µM
Method in brief: (§1)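 For relative viability, nuclei counts in treated wells were divided by those in vehicle wells. Lung cancer cell lines had been pin-tool dosed in 1536-well plates the day after seeding and cultured for 5 days, then fixed and stained in one step (final 0.05% Triton X-100, 1% formaldehyde, 1 ug/ml Hoechst) and imaged at 4×. Doses were one drug alone or a fixed anchor-drug dose plus five library-drug doses (not always all listed) in √10 steps, and values are duplicate-plate medians.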

**Q.** NCI-H661 was tested. Which relative viability did it give?
**A.** 0.496

**Q.** How did the relative viability turn out when NCI-H1734 was run?
**A.** 1.1

**Q.** With NCI-H460 as the cell line, how does the relative viability read?
**A.** 0.956

**Q.** With NCI-H2347 as the cell line, how does the relative viability read?
**A.** 0.998

**Q.** For SK-LU-1, which relative viability is on record?
**A.** 0.871

**Q.** For NCI-H1395, which relative viability is on record?
**A.** 1.11

**Q.** With 201T as the cell line, how does the relative viability read?
**A.** 0.944

**Q.** NCI-H1915 was tested. Which relative viability did it give?
**A.** 0.985

**Q.** HCC-827 was tested. Which relative viability did it give?
**A.** 0.181

**Q.** How did the relative viability turn out when LXF-289 was run?
**A.** 0.883

**Q.** With NCI-H23 as the cell line, how does the relative viability read?
**A.** 1.03

**Q.** How did the relative viability turn out when NCI-H647 was run?
**A.** 1.12

**Q.** How did the relative viability turn out when CAL-12T was run?
**A.** 0.698

**Q.** For NCI-H1651, which relative viability is on record?
**A.** 0.813

Same assay, conditions: first compound 1 µM

**Q.** With COR-L 105 as the cell line, how does the relative viability read?
**A.** 0.336

**Q.** How did the relative viability turn out when LOU-NH91 was run?
**A.** 0.638

**Q.** For NCI-H2405, which relative viability is on record?
**A.** 0.753

**Q.** For HOP-62, which relative viability is on record?
**A.** 0.904

**Q.** How did the relative viability turn out when HCC-44 was run?
**A.** 0.901

**Q.** LU99A was tested. Which relative viability did it give?
**A.** 0.321

**Q.** For BEN, which relative viability is on record?
**A.** 0.543

**Q.** How did the relative viability turn out when HARA was run?
**A.** 0.384

**Q.** HCC-78 was tested. Which relative viability did it give?
**A.** 0.609

**Q.** Which relative viability does the source give for NCI-H322M here?
**A.** 0.523

**Q.** Which relative viability does the source give for LCLC-97TM1 here?
**A.** 0.938

**Q.** Which relative viability does the source give for NCI-H2009 here?
**A.** 0.171

**Q.** With A-427 as the cell line, how does the relative viability read?
**A.** 0.591

**Q.** NCI-H661 was tested. Which relative viability did it give?
**A.** 0.44

**Q.** How did the relative viability turn out when NCI-H1734 was run?
**A.** 0.183

**Q.** Which relative viability does the source give for NCI-H460 here?
**A.** 0.855

**Q.** With NCI-H2347 as the cell line, how does the relative viability read?
**A.** 0.882

**Q.** With SK-LU-1 as the cell line, how does the relative viability read?
**A.** 0.578

**Q.** Which relative viability does the source give for NCI-H1395 here?
**A.** 0.786

**Q.** Which relative viability does the source give for 201T here?
**A.** 0.976

**Q.** NCI-H1915 was tested. Which relative viability did it give?
**A.** 0.662

**Q.** Which relative viability does the source give for HCC-827 here?
**A.** 0.22

**Q.** With LXF-289 as the cell line, how does the relative viability read?
**A.** 0.737

**Q.** With NCI-H23 as the cell line, how does the relative viability read?
**A.** 0.319

**Q.** With NCI-H647 as the cell line, how does the relative viability read?
**A.** 0.173

**Q.** For CAL-12T, which relative viability is on record?
**A.** 0.607

**Q.** How did the relative viability turn out when NCI-H1651 was run?
**A.** 0.118

Compound: Cc1cnc(Nc2ccc(OCCN3CCCC3)cc2)nc1Nc1cccc(S(=O)(=O)NC(C)(C)C)c1 [Fedratinib] + C[C@]1(O)C[C@@H](c2nc(-c3ccc4ccc(-c5ccccc5)nc4c3)c3c(N)nccn32)C1 [Linsitinib] (partner 1 µM)
Assay: as above
Conditions: first compound 0.1 µM
Method in brief: as §1

**Q.** With COR-L 105 as the cell line, how does the relative viability read?
**A.** 0.951

**Q.** Which relative viability does the source give for LOU-NH91 here?
**A.** 0.844

**Q.** With NCI-H2405 as the cell line, how does the relative viability read?
**A.** 0.704

**Q.** For HOP-62, which relative viability is on record?
**A.** 0.837

**Q.** For HCC-44, which relative viability is on record?
**A.** 0.621

**Q.** With LU99A as the cell line, how does the relative viability read?
**A.** 0.521

**Q.** BEN was tested. Which relative viability did it give?
**A.** 0.779

**Q.** How did the relative viability turn out when HARA was run?
**A.** 1.09

**Q.** For HCC-78, which relative viability is on record?
**A.** 0.427

**Q.** With NCI-H322M as the cell line, how does the relative viability read?
**A.** 0.95

**Q.** For LCLC-97TM1, which relative viability is on record?
**A.** 0.151

**Q.** For NCI-H2009, which relative viability is on record?
**A.** 1.18

**Q.** For A-427, which relative viability is on record?
**A.** 1.13

**Q.** NCI-H661 was tested. Which relative viability did it give?
**A.** 0.512

**Q.** NCI-H1734 was tested. Which relative viability did it give?
**A.** 0.898

**Q.** How did the relative viability turn out when NCI-H460 was run?
**A.** 0.806

**Q.** Which relative viability does the source give for NCI-H2347 here?
**A.** 0.871

**Q.** Which relative viability does the source give for NCI-H1395 here?
**A.** 1.2

**Q.** Which relative viability does the source give for 201T here?
**A.** 1.03

**Q.** NCI-H1915 was tested. Which relative viability did it give?
**A.** 1.04

**Q.** For HCC-827, which relative viability is on record?
**A.** 0.964

**Q.** LXF-289 was tested. Which relative viability did it give?
**A.** 0.989

**Q.** With NCI-H23 as the cell line, how does the relative viability read?
**A.** 0.583

**Q.** Which relative viability does the source give for NCI-H647 here?
**A.** 1.14

**Q.** With CAL-12T as the cell line, how does the relative viability read?
**A.** 0.739

**Q.** How did the relative viability turn out when NCI-H1651 was run?
**A.** 0.976
